Several values for one entry are separate records, joined by “and”; a condition that tells them apart may be missing. Equal values may be shown once. Read-outs that look alike come from different tables or passages of the source.
Columns and labels:
avian osteoclasts [1] = assay: Bone resorption assay with [3H]-proline labeled bone and isolated osteoclasts; assay type: cell-based, Gallus domesticus; conditions: for bone resorption: negative to concentration: quadruplicate assays; for IC (essentially complete): 72 h, read-out: concentration giving essentially complete inhibition of bone resorption
Method: Arian osteoclasts were isolated from medullary bone of calcium-starved white leghorn laying hens, Gallus domesticus, essentially as described by Blair et al. (1986). […] 90-98% of cell mass of sedimenting material consists of osteoclasts or essentially inert red cells (Zambonin-Zallone et al., 1982; Blair et al., 1986). Although rich in osteoclasts, these preparations contain significant numbers of all other components of bone, including osteoblasts and marrow cells.
Cells were plated on glass cover slips in 3 cm petri plates for fluorescence studies, or 15 cm petri plates for Western Blots, or 24 well plates (2 cm^2 /well) for resorption and binding studies. For resorption and binding studies, cells were plated at 5×10^3 /well. Cells were maintained in α-MEM containing 5% fetal calf serum, 5% chicken serum, 100 μg/ml streptomycin and 100 units/ml penicillin at 37° C. in humidified air with 5% CO2.
Where bone was used, this was devitalized fragmented rat bone (Blair et al., 1986) sieved to sizes indicated, usually 25-50 μm. For studies of osteoclasts attached to bone or tissue culture plates, 100 μg unlabeled bone per 2 cm^2 well was used, or 5 mg per 10 cm plate.
Bone resorption was measured using [^3 H]-proline labeled bone (Blair et al., 1986).

[2] = tested on: avian osteoclast membrane HCl transport; assay: Osteoclast membrane vesicle acid transport (acridine orange fluorescence quenching); assay type: biochemical, Gallus domesticus; conditions: for IC50: osteoclast membrane vesicles, read-out: half maximal inhibition of osteoclast acid transport / acid secretion; for effect of valinomycin on inhibited vesicle acid transport: 120 mM KCl, 5 μM herbimycin, 20 μM genistein; for reversal of inhibition by by-passing chloride conductivity with valinomycin: valinomycin 2 μM, potassium 120 mM; for activity on acid transport: 25 μM
in vitro = conditions: osteoclasts
Method: (§1) Since advantageous effects are seen at 1 μM, with half maximal effects at 2-3 μM, toxicity at 30 μM indicates a broad therapeutic margin. […] It should also be noted that doses would not be designed to achieve 100%, or even 50%, inhibition as osteoclasts are vital cells. Thus, 10-20% inhibition would likely result in a clear benefit to the patient without significant side effects, particularly as over-inhibtion would be compensated for by production of PTH.

osteoclasts [3] = assay: in vitro
Method: as §1

osteoclasts [4] = assay: Bone binding (adherence of labeled bone fragments to cultured osteoclasts); assay type: cell-based, Gallus domesticus
Method: Bone binding was determined by adherence of bone fragments to cultured cells (Carano et al., 1990). Briefly, this entailed adding labeled bone fragments to 3 day osteoclast cultures, incubating 4 h at 37° C. in a α-MEM with 5% fetal calf serum and 5% chicken serum, washing with PBS […], solubilizing the label overnight in 6N HCl, and scintillation counting.

Aqueous solubility = assay type: physicochemical
Method: (§2) The low aqueous solubility of genistein (<50 μg per ml) should also be considered. This might result in a maximum total absorption independent of dose. […] The present inventors have used this delivery method for studies performed in rats. […] NaTC is a naturally occurring bile salt and may have a role in the absorption of genistein released from food.

[5] = Biliary appearance of intestinally administered genistein in rats; assay type: in vivo; conditions: rat, bile, intestinal administration with NaTC, over a 4 hr period, read-out: fraction of administered genistein appearing in bile
Method: as §2

[6] = Southeast Asians, 70 mg per day; cited from earlier work
avian osteoclasts [7] = assay: Bone resorption assay with [3H]-proline labeled bone and isolated osteoclasts; assay type: cell-based, Gallus domesticus; conditions: Gallus gallus, Osteoclast, read-out: half maximal effect on bone resorption, 100 μg 3H-proline labeled bone, 10^4 osteoclasts

N#CC(=Cc1ccc(O)c(O)c1)C(N)=S [Tyrphostin A47]
bone resorption: negative to concentration (avian osteoclasts [1]): > 20 µM
IC50 [2]: 12000 nM

O=c1c(-c2ccc(O)cc2)coc2cc(O)cc(O)c12 [genistein, 5,7,4'-trihydroxyisoflavone]
inhibition of bone resorption / degradation (FIG. 1) (avian osteoclasts [1]): significantly inhibited
IC (essentially complete) (avian osteoclasts [1]; Gallus gallus, Osteoclast, at 3 days): 20 µM
inhibition of bone resorption / degradation (FIG. 1) (avian osteoclasts [1]; listed as Genistein): significantly inhibits
level effective at inhibiting osteoclast acid secretion [2]: less than 1 μM and < 0.27 μg/ml
effect of valinomycin on inhibited vesicle acid transport [2]: valinomycin insensitive
inhibition of osteoclast cell membrane acid transport (FIG. 2) ([2]; doses comparable to those inhibiting bone resorption): inhibited
IC50 [2]: ~3000 nM
reversal of inhibition by by-passing chloride conductivity with valinomycin [2]: not reversed
MCC (in vitro; chicken): 30 µM
selectivity ratio (in vitro): ~30
time in which cells die (osteoclasts [3]; 30 μM genistein): 2 to 3 days
effect on osteoclast binding to bone (osteoclasts [4]): alter the ability of osteoclasts to bind to bone
aqueous solubility when mixed with bile salt (Aqueous solubility; mixed with sodium taurocholate (NaTC)): substantially enhanced
solubility (Aqueous solubility; water): < 50 µg/mL
dose excreted at 4 h [5]: 40 to 50%
ill effects of dietary intake [6]: without obvious ill effects

O=c1c(-c2ccc(O)cc2)coc2cc(O)ccc12 [daidzein, 4',7-dihydroxyisoflavone]
effect on bone resorption (avian osteoclasts [1]; 10 μM): no effect
inhibition at 30 µM (avian osteoclasts [1]; Gallus gallus, Osteoclast, 30 μM): ~10%
activity in the osteoclast assay systems (avian osteoclasts [1]; osteoclast assay systems disclosed): negligible activity
bone resorption: negative to concentration (avian osteoclasts [1]): > 20 µM
activity on acid transport [2]: inactive
inhibition of osteoclast acid transport ([2]; 30 μM): < 20%

CO[C@H]1[C@@H](OC)C[C@H](C)[C@@H](OC)C2=CC(=O)C=C(NC(=O)/C(C)=C/C=C\[C@H](OC)[C@@H](OC(N)=O)/C(C)=C/[C@@H]1C)C2=O [Herbimycin A]
IC (essentially complete) (avian osteoclasts [1]; Gallus gallus, Osteoclast): 1 µM
effective dose on osteoclast acid secretion relative to genistein, fold lower [2]: about 10 fold
effect of valinomycin on inhibited vesicle acid transport [2]: restored acid transport activity
IC50 [2]: ~2000 nM
reversal of inhibition by by-passing chloride conductivity with valinomycin [2]: partially reversed
toxicity relative to genistein (osteoclasts [3]): about ten times more toxic
toxicity threshold relative to genistein, fold lower (osteoclasts [3]; chicken): about 10 fold
IC50 (avian osteoclasts [7]): 300 to 500 nM

N#CC(C#N)=Cc1cc(O)c(O)c(O)c1 [Tyrphostin A25]
activity on acid transport [2]: inactive

From patent publication US5506211A, “Genistein for use in inhibiting osteroclasts” (The UAB Research Foundation, priority 1994, dated 1996)
